# From patent US20220267478A1, “PEPTIDE-LOADED CARRIER SYSTEMS AND USES THEREOF” (Academia Sinica, priority 2019, published 2022)
# Ends that are not written are not given here.
# Legend:
# [1] = Aqueous solubility of peptides; conditions: for Solubility of unmodified peptide epitope: Table 1; for water solubility (in words) / solubility: water
# CD8 T cells = assay: Trp2-specific CD8 T cell response in splenocytes of vaccinated mice (intracellular IFN-γ staining, flow cytometry); format: in vivo, C57BL/6 mice; conditions: peptide in nanoparticles with cdGMP; FIG. 10
# Description: The immunogenicity of modified Trp2 peptides was tested by encapsulating them in the aqueous core of hollow thin-shell nanoparticles together with a fixed amount of stimulator of interferon genes (STING) agonist cyclic di-GMP (cdGMP) and injecting them into mice.
# The modified Trp2 peptides were as follows: (i) D4-Trp2-D5, (ii) Trp2-D5, (iii) D5-Trp2, (iv) D2G3-Trp2-G3D2, (v) Trp2-G3D3, and (vi) D3G3-Trp2. As Trp2 itself cannot be incorporated into the aqueous core due to its hydrophobicity, a longer Trp2 peptide, namely, Trp2168-195 was encapsulated as a positive control.
# Nanoparticles each containing an equivalent dose of one of the Trp2 peptides and cdGMP were prepared as described in Example 1 above and administered to C57BL/6 mice on day 0 and day 21 by subcutaneous injection at the base of the tail. On day 28, splenocytes of the vaccinated mice were isolated and examined for Trp2-specific CD8 T cell immune responses. Briefly, splenocytes from each mouse were challenged with Trp2 peptide and expression of IFN-γ in CD8 T cells was measured by intracellular cytokine staining and flow cytometry.
# JAWSII dendritic cells = assay: Dendritic cell surface marker expression after nanoparticle incubation and LPS stimulation; format: cell-based; conditions: FIG. 24
# Description: FIG. 24 includes bar graphs showing the percentage of JAWSII dendritic cells expressing CD80 (upper left panel), CD86 (upper right panel), MHC I (bottom left panel) and MHC II (bottom right panel) assessed by flow cytometric analysis after the cells were co-cultured with the indicated aspirin/peptide formulations.
# Dendritic cells were incubated with nanoparticles co-encapsulating adaptor modified OTII peptide and aspirin or adaptor-modified peptides only for 6 h, and then were stimulated with low dose of lipopolysaccharide (“LPS”). Dendritic cell phenotypes were observed 24 h later. See the experimental scheme in FIG. 23.
# [2] = from Vasievich et al.; cited from earlier work
compound,measurement,setting,value
"ASMTNMELM [Adpgk, ASMTNMELM]",Solubility of unmodified peptide epitope,[1],hydrophobic
same,water solubility (in words),[1],poorly soluble
"QVYSLIRPNENPAHK [influenza virus nucleoprotein NP311, QVYSLIRPNENPAHK]",Solubility of unmodified peptide epitope,[1],hydrophilic
DDDGGGSIINFEKL [D3G3-OVA],solubility,[1],50 mM
"DDDGGGSVYDFFVWL [D3G3-Trp2, DDDGGGSVYDFFVWL]",solubility fold higher than the Trp2 peptide,[1]; H2O,over 500 fold
same,solubility,[1],> 30 mM
"KVPRNQDWL [gp100, KVPRNQDWL]",Solubility of unmodified peptide epitope,[1],hydrophilic
"ISQAVHAAHAEINEAGR [OT-II, ISQAVHAAHAEINEAGR]",Solubility of unmodified peptide epitope,[1],hydrophilic
"CC[C@H](C)[C@H](NC(=O)[C@@H](NC(=O)[C@@H](N)CO)[C@@H](C)CC)C(=O)N[C@@H](CC(N)=O)C(=O)N[C@@H](Cc1ccccc1)C(=O)N[C@@H](CCC(=O)O)C(=O)N[C@@H](CCCCN)C(=O)N[C@@H](CC(C)C)C(=O)O [OVA257-264, SIINFEKL]",Solubility of unmodified peptide epitope,[1],hydrophilic
same,solubility,[1],2 mM
"SIIVFNLL [Dpagt1, SIIVFNLL]",Solubility of unmodified peptide epitope,[1],hydrophobic
same,water solubility (in words),[1],poorly soluble
"AQLANDVVL [Resp1, AQLANDVVL]",Solubility of unmodified peptide epitope,[1],hydrophobic
same,water solubility (in words),[1],poorly soluble
"TAYRYHLL [Trp1m, TAYRYHLL]",Solubility of unmodified peptide epitope,[1],hydrophilic
Trp2168-195: longer Trp2 peptide containing sequences flanking the target epitope 180-188; positive control,"CD8+ T cell response, fold weaker compared to D3G3-Trp2",CD8 T cells,~20 fold
"FQDAYNAAGGHNAVF [Mycobacterium tuberculosis p25, FQDAYNAAGGHNAVF]",Solubility of unmodified peptide epitope,[1],hydrophobic
lipopolysaccharide [LPS],"expression of CD80, CD86, MHC I, and MHC II compared to vehicle control",JAWSII dendritic cells,increased expression
"CC(C)C[C@H](NC(=O)[C@H](Cc1c[nH]c2ccccc12)NC(=O)[C@@H](NC(=O)[C@H](Cc1ccccc1)NC(=O)[C@H](Cc1ccccc1)NC(=O)[C@H](CC(=O)O)NC(=O)[C@H](Cc1ccc(O)cc1)NC(=O)[C@@H](NC(=O)[C@@H](N)CO)C(C)C)C(C)C)C(=O)O [Trp2, SVYDFFVWL]",maximum solubility in water,[2],0.06 mM
